US20160250213A1, “FORMULATIONS OF AZAINDOLE COMPOUNDS” (priority 2013, published 2016)
Read-outs that look alike come from different tables or passages of the source.

Key:
[1] = for Sol. / Resulting Form: ambient temperature
[2] = physchem; settings: water, thermodynamic from solid
[3] = Hydrate formation of free base versus humidity / water activity; assay type: physicochemical; settings: ambient temperature

SMILES: O=C(O)[C@H]1C2CCC(CC2)C1Nc1nc(-c2c[nH]c3ncc(F)cc23)ncc1F (stereo partly drawn) [Form A free base Compound (1)]
- Sol. ([1]; solvent 1,1,2-Trichloroethane): 1.0 mg/mL
- Sol. ([1]; solvent 1,2-Dichloroethane): 0.4 mg/mL
- Sol. ([1]; solvent 1,2-Dimethoxyethane): 114.0 mg/mL
- Resulting Form ([1]; solvent 1,4-Dioxane): Solvate (1:1)
- Sol. ([1]; solvent 1,4-Dioxane): 21.3 mg/mL
- Sol. ([1]; solvent 1-Butanol): 21.0 mg/mL
- Resulting Form ([1]; solvent 1-Pentanol): No signal
- Sol. ([1]; solvent 1-Pentanol): 14.5 mg/mL
- Resulting Form ([1]; solvent 1-Propanol): Solvate
- Sol. ([1]; solvent 1-Propanol): 15.9 mg/mL
- Resulting Form ([1]; solvent 2-Butanol): Solvate (1:1)
- Sol. ([1]; solvent 2-Butanol): 14.0 mg/mL
- Resulting Form ([1]; solvent 2-Ethoxyethanol): Amorphous
- Sol. ([1]; solvent 2-Ethoxyethanol): >113 mg/mL
- Resulting Form ([1]; solvent 2-Methoxyethanol): Amorphous
- Sol. ([1]; solvent 2-Methoxyethanol): >114 mg/mL
- Sol. ([1]; solvent 2-Methy-1-propanol): 12.2 mg/mL
- Resulting Form ([1]; solvent 2-Propanol): Solvate(1:1)
- Sol. ([1]; solvent 2-Propanol): 12.9 mg/mL
- Sol. ([1]; solvent 3-Methyl-1-butanol): 9.7 mg/mL
- Resulting Form ([1]; solvent Acetone): Solvate
- Sol. ([1]; solvent Acetone): 16.3 mg/mL
- Sol. ([1]; solvent Acetonitrile): 1.0 mg/mL
- Sol. ([1]; solvent Anisole): 0.7 mg/mL
- Sol. ([1]; solvent Butyl acetate): 8.1 mg/mL
- Sol. ([1]; solvent Chlorobenzene): 0.4 mg/mL
- Sol. ([1]; solvent Chloroform): 3.8 mg/mL
- Sol. ([1]; solvent Cumene): 0.3 mg/mL
- Sol. ([1]; solvent Cyclohexane): <0.1 mg/mL
- Sol. ([1]; solvent Dichloromethane): 0.9 mg/mL
- Resulting Form ([1]; solvent Dimethylsulfoxide): No signal
- Sol. ([1]; solvent Dimethylsulfoxide): >113 mg/mL
- Resulting Form ([1]; solvent Ethanol): No signal
- Sol. ([1]; solvent Ethanol): 35.5 mg/mL
- Sol. ([1]; solvent Ethyl acetate): 11.6 mg/mL
- Sol. ([1]; solvent Ethyl ether): 3.5 mg/mL
- Sol. ([1]; solvent Ethyl formate): 8.1 mg/mL
- Sol. ([1]; solvent Ethylene glycol): 10.4 mg/mL
- Sol. ([1]; solvent Formamide): 7.0 mg/mL
- Resulting Form ([1]; solvent Formic acid): Amorphous
- Sol. ([1]; solvent Formic acid): >89.4 mg/mL
- Sol. ([1]; solvent Heptane): <1.5 mg/mL
- Sol. ([1]; solvent Hexane): <0.1 mg/mL
- Sol. ([1]; solvent Isobutyl acetate): 4.4 mg/mL
- Sol. ([1]; solvent Isopropyl acetate): 6.2 mg/mL
- Resulting Form ([1]; solvent Methanol): Solvate
- Sol. ([1]; solvent Methanol): 25.5 mg/mL
- Resulting Form ([1]; solvent Methyl acetate): Solvate
- Sol. ([1]; solvent Methyl acetate): 9.4 mg/mL
- Resulting Form ([1]; solvent Methyl tetrahydrofuran): Solvate(1:1)
- Sol. ([1]; solvent Methyl tetrahydrofuran): 34.8 mg/mL
- Sol. ([1]; solvent Methylbutyl ketone): 20.0 mg/mL
- Sol. ([1]; solvent Methylcyclohexane): <0.1 mg/mL
- Resulting Form ([1]; solvent Methylethyl ketone): Amorphous
- Sol. ([1]; solvent Methylethyl ketone): 27.3 mg/mL
- Resulting Form ([1]; solvent N,N-Dimethylacetamide): Solvate
- Sol. ([1]; solvent N,N-Dimethylacetamide): >150 mg/mL
- Resulting Form ([1]; solvent N,N-Dimethylformamide): Solvate
- Sol. ([1]; solvent N,N-Dimethylformamide): 39.2 mg/mL
- Sol. ([1]; solvent N-Methylpyrrolidinone): >149 mg/mL
- Sol. ([1]; solvent Nitromethane): 0.3 mg/mL
- Sol. ([1]; solvent Pentane): <0.3 mg/mL
- Sol. ([1]; solvent Propyl acetate): 7.5 mg/mL
- Resulting Form ([1]; solvent Tetrahydrofuran): Solvate(1:1)
- Sol. ([1]; solvent Tetrahydrofuran): 61.2 mg/mL
- Sol. ([1]; solvent Tetralin): <0.1 mg/mL
- Sol. ([1]; solvent Toluene): 0.3 mg/mL
- Resulting Form ([1]; solvent Water-IPA 1:1): Solvate
- Resulting Form ([1]; solvent Water-MeOH 1:1): Solvate
- Resulting Form ([1]; solvent Water-MeOH 1:3): Solvate
- Sol. ([1]; solvent acetic acid): 42.8 mg/mL
- stability in solvent systems ([1]; solvent systems listed in b344 (acetonitrile to water-acetonitrile)): stable
- Resulting Form ([1]; solvent t-Butylmethylether): Amorphous
- Sol. ([1]; solvent t-Butylmethylether): 10.4 mg/mL
- Resulting Form ([1]; solvent xylene): Solvate
- Sol. ([1]; solvent xylene): 0.3 mg/mL
- solubility thermodynamic at 2 weeks [2]: < 100 µg/mL
- water activity where the hydrate form was observed [3]: greater than 0.6
